Series [1] relates to rat adjuvant-induced arthritis. The experiment in a line: Rat adjuvant-induced arthritis model. The class given is in vivo. As to the method:
Mean of 10 readings was recorded.
Drugs were formulated fresh for each administration.

A short description of series [2]: Ex vivo bioassay of blood concentration after oral administration. On the set-up: species or system rat. Particulars: 10 mg/kg oral, suspension in PBS/Tween, +/- CyA 0.3 mg/kg, 0.5-24 hrs, n=6. As to the method:
Compound 1 (10 mg/kg)±CyA (0.3 mg/kg) (in PBS/0.1% Tween 80™] was administered to healthy male Lewis rats (as above). Blood samples (0.5 ml into a syringe containing 0.1 ml acid citrate dextroset as anticoagulant) were removed from the ventrcolateral tail vein of the halothane anaestetised rat at t=prebleed, 0.5, 1, 2, 6 and 24 hrs. 3 mls methanol was added to each blood sample, mixed and centrifuged at 3000 r.p.m. for 15 minutes (using Beckman GPKR centrifuge). 2.0 ml of the methanol supernatant was removed and evaporated dry. The pellet was redisolved in 200 μl DMSO (dimethylsulphoxide). An aliquot of the solubilised pellet was assayed against fibroblast collagenase using ^14C collagen as substrate, as follows:
Samples were incubated overnight at 37° C. and undigested substrate removed by centrifugation at 11,600 r.p.m. for 15 mins (using Heraeus Biofuge 15). 200 μl of supernatant was tested by liquid scintillation spectrophotometry.
A calibration curve for the test compound of interest was run alongside the blood samples. The concentration of the test compound in the blood was then calculated from the calibration curve.

Consider two molecules from US20020025925A1, “Combination therapy” (priority 1996, published 2002).

On to `CNC(=O)[C@H](Cc1ccccc1)NC(=O)[C@H](CC(C)C)[C@H](CSc1cccs1)C(=O)NO` [Compound 2, [4-(N-Hydroxyamino)-2R-isobutyl-3S-(thiophenylthiomethyl)succinyl]-L-phenylalanine-N-methylamide], for which the “synergy with cyclosporin A” value in series [1] (Compound 2 5 mg/kg ip, bid with cyclosporin A 0.3 mg/kg ip, bid) is “act in synergy”.
Take `CCC[C@H](C(=O)NO)[C@@H](CC(C)C)C(=O)N[C@H](C(=O)NC)C(C)(C)C` [Compound 1, 3R-(2,2-Dimethyl-1S-methylcarbamoyl-propylcarbamoyl)-5-methyl-2S-2-propyl-hexanohydroxamic acid]: the effect on arthritis entry in series [1] (Compound 1 10 mg/ml (so in the source), po, bid, days 10-20) is listed as “very little or no effect”. For the same molecule, the “reducing the paw volume (swelling)” value in series [1] (Compound 1 at doses at or below 10 mg/kg, po, bid (data not shown)) is reported as “ineffective”. Further, the “blood concentration of Compound 1 with versus without CyA” value in series [2] was “equivalent”.
